Measurements from US8993565B2, “(6-oxo-1,6-dihydropyrimidin-2-yl)amide derivatives, preparation thereof and pharmaceutical use thereof as AKT(PKB) phosphorylation inhibitors” (Sanofi, priority 2009, dated 2015).

Key:
[1] = test system: AKT protein phosphorylated on serine 473 (P-AKT-S473); assay: Study of pAKT expression in PC3 human prostate carcinoma cells measured by the MSD Multi-spot Biomarker Detection technique (Test B); type: cell-based; conditions: PC-3, inhibition of AKT phosphorylation (P-AKT-S473), MSD sandwich immunoassay, 1 to 2 h incubation, absolute IC50, mean of 2 experiments
Method in brief: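 Lysate P-AKT-S473 quantified by MSD electrochemiluminescent sandwich immunoassay; inhibition vs DMSO and cell-free background, IC50 averaged over 2 experiments.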

[2] = test system: AKT protein phosphorylated on serine 473 (pAKT-S473); assay: Study of pAKT expression in PC3 human prostate carcinoma cells measured by western blotting (Test A); type: cell-based; conditions: PC-3, inhibition of AKT phosphorylation (pAKT-S473), 1 to 2 hours incubation, absolute IC50, mean of two experiments
Procedure: The inhibitory activity of the molecules on AKT phosphorylation is measured either by western blotting using the technique described below, or by the MSD Multi-spot Biomarker detection technique from Meso Scale Discovery also described below.
Study of pAKT Expression in PC3 Human Prostate Carcinoma Cells Measured by Western Blotting (Test A):
On day 2, the cells are incubated in the presence or absence of the test products for 1 to 2 hours at 37° C. in the presence of 5% CO2. The molecules, diluted in dimethyl sulphoxide (DMSO Sigma #D2650), are added from a 10-times concentrated stock solution, the final percentage of DMSO being 0.1%. The molecules are tested either at a single concentration of less than or equal to 10 μM, or at increasing concentrations in a range that can extend from less than 1 nM to 10 μM.
After this incubation, the cells are lysed for the preparation of the proteins.
The lysate is centrifuged for 10 min at 6000 rpm. 155 μl of supernatant are recovered. 150 μl are incubated for denaturation for 5 min at 95° C. in the presence of 4× NuPAGE LDS Sample Buffer diluted 4-fold (InVitrogen ref NP0007) and of 10× NuPAGE Sample Reducing Agent diluted 10-fold (InVitrogen ref NP0009). These samples are then frozen at −20° C.
The gel is then transferred on to an Invitrolon PVDF membrane (Invitrogen #LC2007) permeabilised beforehand and for a few seconds in ethanol (Ethanol Fischer Scientific #E/0600DF/15).
The transfer is carried out in a Biorad tank at 30 volts overnight or at 60 volts for 3 hours, in the presence of 20× NUPAGE Transfer Buffer diluted 20-fold (InVitrogen ref NP0006).
The membrane is then saturated in saturating solution composed of TBS (10× Tris Buffered Saline, Sigma #T5912, diluted 10-fold), 0.1% Tween (Sigma #P5927) and 3% BSA (Bovine Albumin Serum Fraction V, Sigma #A4503) for 6 h after overnight transfer or else for 1 h after transfer for a period of 3 h.
Two rinses for min in washing solution composed of TBS and 0.1% Tween 20 are carried out before hybridisation of the secondary antibodies.
The secondary antibodies are diluted 110000th for the rabbit anti-Mouse IgG HRP antibody (W402 Promega) and to 110000th for the goat anti-Rabbit IgG HRP antibody (W401 Promega) in saturating solution, and then shaken for 1 h at ambient temperature.
Two rinses for 30 min in washing solution are carried out and then a rinse for 5 min in H2O is carried out in order to eliminate the remaining Tween 20.
The luminescence is read with the FujiFilm device (Ray Test).
The FUJI device measures the total luminescence signal obtained (AU) for each band selected. It then subtracts the background noise (BG) proportional to the size of the band selected (Area), said background noise being calculated from a specific background noise band, with a view to obtaining the specific signal (AU-BG) for each band. The band obtained in the absence of product and in the presence of 0.1% DMSO is considered to be the 100% signal. The software calculates the % specific activity (Ratio) obtained for each band selected as a function of this 100% signal. The percentage inhibition is calculated for each concentration according to the formula (100%−Ratio).
Two independent experiments make it possible to calculate the mean of the percentages of inhibition obtained at a given concentration for the products tested only at one concentration.
Two independent experiments make it possible to calculate the mean of the IC50s.

Row | SMILES | IC50 [1] | IC50 [2]
1 | O=C(Cc1nc(N2CCOCC2)cc(=O)[nH]1)Nc1ccc(F)c(OC(F)(F)F)c1 [Example 54, N-[4-fluoro-3-(trifluoromethoxy)phenyl]-2-[4-(morpholin-4-yl)-6-oxo-1,6-dihydropyrimidin-2-yl]acetamide] | 67 nM | 807 nM
2 | O=C(Cc1nc(N2CCOCC2)cc(=O)[nH]1)Nc1cccc(F)c1 [Example 14, N-(3-fluorophenyl)-2-[4-(morpholin-4-yl)-6-oxo-1,6-dihydropyrimidin-2-yl]acetamide] | 74 nM | 570 nM
3 | O=C(Cc1nc(N2CCOCC2)cc(=O)[nH]1)Nc1ccc(F)c(C2CC2)c1 [Example 52, N-(3-cyclopropyle-4-fluorophenyl)-2-[4-(morpholin-4-yl)-6-oxo-1,6-dihydropyrimidin-2-yl]acetamide] | – | 227 nM
4 | O=C(Cc1nc(N2CCOCC2)cc(=O)[nH]1)Nc1cccc(OC(F)(F)F)c1 [Example 43, 2-[4-(morpholin-4-yl)-6-oxo-1,6-dihydropyrimidin-2-yl]-N-[3-(trifluoromethoxy)phenyl]acetamide] | – | 549 nM
5 | Cc1cccc(NC(=O)Cc2nc(N3CCOCC3)cc(=O)[nH]2)c1F [Example 41, N-(2-fluoro-3-methylphenyl)-2-[4-(morpholin-4-yl)-6-oxo-1,6-dihydropyrimidin-2-yl]acetamide] | 60 nM | 290 nM
6 | COc1cc(F)ccc1NC(=O)Cc1nc(N2CCOCC2)cc(=O)[nH]1 [Example 45, N-(4-fluoro-2-methoxyphenyl)-2-[4-(morpholin-4-yl)-6-oxo-1,6-dihydropyrimidin-2-yl]acetamide] | – | 261 nM
7 | N#Cc1cccc(NC(=O)Cc2nc(N3CCOCC3)cc(=O)[nH]2)c1 [Example 26, N-(3-cyanophenyl)-2-[4-(morpholin-4-yl)-6-oxo-1,6-dihydropyrimidin-2-yl]acetamide] | – | 2290 nM
8 | O=C(Cc1nc(N2CCOCC2)cc(=O)[nH]1)N1CCOc2ccccc21 [Example 62, 2-[2-(2,3-dihydro-4H-1,4-benzoxazin-4-yl)-2-oxoethyl]-6-(morpholin-4-yl)pyrimidin-4(3H)-one] | – | 530 nM
9 | O=C(Cc1nc(N2CCOCC2)cc(=O)[nH]1)Nc1cccc2ocnc12 [Example 42, N-(1,3-benzoxazol-4-yl)-2-[4-(morpholin-4-yl)-6-oxo-1,6-dihydropyrimidin-2-yl]acetamide] | 148 nM | 400 nM
10 | O=C(Cc1nc(N2CCOCC2)cc(=O)[nH]1)Nc1cccc2[nH]ccc12 [Example 71, N-(1 H-indol-4-yl)-2-[4-(morpholin-4-yl)-6-oxo-1,6-dihydropyrimidin-2-yl]acetamide] | 120 nM | 5380 nM
11 | Cc1cccc(NC(=O)Cc2nc(N3CCOCC3)cc(=O)[nH]2)c1C [Example 40, N-(2,3-dimethylphenyl)-2-[4-(morpholin-4-yl)-6-oxo-1,6-dihydropyrimidin-2-yl]acetamide] | – | 1490 nM
12 | O=C(Cc1nc(N2CCOCC2)cc(=O)[nH]1)Nc1cccc(Br)c1 [Example 18, N-(3-bromophenyl)-2-[4-(morpholin-4-yl)-6-oxo-1,6-dihydropyrimidin-2-yl]acetamide] | – | 23 nM
13 | O=C(Cc1nc(N2CCOCC2)cc(=O)[nH]1)Nc1ccc(Cl)cc1 [Example 15, N-(4-chlorophenyl)-2-[4-(morpholin-4-yl)-6-oxo-1,6-dihydropyrimidin-2-yl]acetamide] | – | 1420 nM
14 | O=C(Cc1nc(N2CCOCC2)cc(=O)[nH]1)Nc1cccc(I)c1 [Example 56, N-(3-iodophenyl)-2-[4-(morpholin-4-yl)-6-oxo-1,6-dihydropyrimidin-2-yl]acetamide] | – | 137 nM
15 | O=C(Cc1nc(N2CCOCC2)cc(=O)[nH]1)Nc1cccc(OCCO)c1 [Example 55, N-[3-(2-hydroxyethoxy)phenyl]-2-[4-(morpholin-4-yl)-6-oxo-1,6-dihydropyrimidin-2-yl]acetamide] | – | 10000 nM
16 | CC(C)c1cccc(NC(=O)Cc2nc(N3CCOCC3)cc(=O)[nH]2)c1 [Example 22, 2-[4-(morpholin-4-yl)-6-oxo-1,6-dihydropyrimidin-2-yl]-N-[3-(propan-2-yl)phenyl]acetamide] | – | 350 nM
17 | O=C(Cc1nc(N2CCOCC2)cc(=O)[nH]1)Nc1cccc(OC(F)F)c1 [Example 38, N-[3-(difluoromethoxy)phenyl]-2-[4-(morpholin-4-yl)-6-oxo-1,6-dihydropyrimidin-2-yl]acetamide] | – | 480 nM
18 | O=C(Cc1nc(N2CCOCC2)cc(=O)[nH]1)Nc1ccc(F)c([N+](=O)[O-])c1 [Example 63, N-(4-fluoro-3-nitrophenyl)-2-[4-(morpholin-4-yl)-6-oxo-1,6-dihydropyrimidin-2-yl]acetamide] | – | 6160 nM
19 | O=C(Cc1nc(N2CCOCC2)cc(=O)[nH]1)Nc1ccc(F)c(Cl)c1 [Example 29, N-(3-chloro-4-fluorophenyl)-2-[4-(morpholin-4-yl)-6-oxo-1,6-dihydropyrimidin-2-yl]acetamide] | – | 116 nM
20 | CCOc1cccc(NC(=O)Cc2nc(N3CCOCC3)cc(=O)[nH]2)c1 [Example 58, N-(3-ethoxyphenyl)-2-[4-(morpholin-4-yl)-6-oxo-1,6-dihydropyrimidin-2-yl]acetamide] | 71 nM | 760 nM
21 | C#Cc1cccc(NC(=O)Cc2nc(N3CCOCC3)cc(=O)[nH]2)c1 [Example 48, N-(3-ethynylphenyl)-2-[4-(morpholin-4-yl)-6-oxo-1,6-dihydropyrimidin-2-yl]acetamide] | – | 184 nM
22 | O=C(Cc1nc(N2CCOCC2)cc(=O)[nH]1)Nc1ccccc1F [Example 9, N-(2-fluorophenyl)-2-[4-(morpholin-4-yl)-6-oxo-1,6-dihydropyrimidin-2-yl]acetamide] | – | 727 nM
23 | Cn1c(CC(=O)Nc2ccc(F)c(Cl)c2)nc(N2CCOCC2)cc1=O [Example 68, N-(3-chloro-4-fluorophenyl)-2-[1-methyl-4-(morpholin-4-yl)-6-oxo-1,6-dihydropyrimidin-2-yl]acetamide] | 79 nM | 202 nM
24 | O=C(Cc1nc(N2CCOCC2)cc(=O)[nH]1)Nc1ccc(F)c(F)c1 [Example 6, N-(3,4-difluorophenyl)-2-[4-(morpholin-4-yl)-6-oxo-1,6-dihydropyrimidin-2-yl]acetamide] | – | 23 nM
25 | O=C(Cc1nc(N2CCOCC2)cc(=O)[nH]1)Nc1ccc(F)c(C(F)(F)F)c1 [Example 47, N-[4-fluoro-3-(trifluoromethyl)phenyl]-2-[4-(morpholin-4-yl)-6-oxo-1,6-dihydropyrimidin-2-yl]acetamide] | – | 346 nM
26 | O=C(Cc1nc(N2CCOCC2)cc(=O)[nH]1)Nc1ccc(F)c(Br)c1 [Example 33, N-(3-bromo-4-fluorophenyl)-2-[4-(morpholin-4-yl)-6-oxo-1,6-dihydropyrimidin-2-yl]acetamide] | – | 93 nM
27 | O=C(Cc1nc(N2CCOCC2)cc(=O)[nH]1)Nc1ccc(F)cc1 [Example 2, N-(4-fluorophenyl)-2-[4-(morpholin-4-yl)-6-oxo-1,6-dihydropyrimidin-2-yl]acetamide] | – | 321 nM
28 | O=C(Cc1nc(N2CCOCC2)cc(=O)[nH]1)Nc1cccc(O)c1 [Example 32, N-(3-hydroxyphenyl)-2-[4-(morpholin-4-yl)-6-oxo-1,6-dihydropyrimidin-2-yl]acetamide] | – | 3640 nM
29 | Cc1ccccc1NC(=O)Cc1nc(N2CCOCC2)cc(=O)[nH]1 [Example 10, N-(2-methylphenyl)-2-[4-(morpholin-4-yl)-6-oxo-1,6-dihydropyrimidin-2-yl]acetamide] | – | 3500 nM
